Results taken from patent US20070213291A1, “Therapeutically useful synthetic oligonucleotides” (priority 1999, published 2007).

How the values were obtained:
Format in all cases: cell-based
[1] = system: Jurkat human leukemia T cells; test: Inhibition of Jurkat human leukemia T cell proliferation (MTT reduction); settings: for % INHIBITION of Jurkat human leukemia T cell proliferation: 100 μg/ml sequence, 48 h, 2.5×10^5 cells/ml
Protocol: Cells were seeded in 6 (1 ml/well), 24 (0.5 ml/well) or 96 (0.1 ml/well) well flat-bottom microplates and were maintained at 37° C. in a 5% CO2 atmosphere. Unless stated otherwise, 2.5×10^5 cells/ml were incubated with 0 μg/ml (control) and 100 μg/ml (treated) of 2 to 45 base sequences containing A, C, G and T for 48 h.
MTT was measured at a wavelength of 570 nm using a multiplate spectrophotometer reader (ELX800, Bio-TEK Instruments Inc., Winooski, Vt.).
Jurkat human leukemia T cells are an atypical multi-drug resistant human suspension tumor cell model.

[2] = system: THP-1 human acute monocytic leukemia cells; test: Cytokine production by THP-1 cells (ELISA); settings: THP-1, 1×10^6 cells, 100 μg/ml, 48 h; for ↑ IL-12 (fold increase treated vs control cells): p70 complex and free p40
Protocol: Unless stated otherwise, 1×10^6 cells were incubated with 100 μg/ml of each of the sequences tested for 48 h at 37° C. in 5% CO2. Production of cytokines IL-6, IL-10, IL-12, IL-1beta and TNF-alpha was determined in pg/ml in 100 μl of culture supernatant using the appropriate commercial ELISA (BioSource, Camarillo Calif.). The IL-12 ELISA measures both IL-12 p70 complex and free p40 subunit. Results are expressed as the “fold” (×) increase in cytokine production by treated cells compared to control cells.
THP-1 human acute monocytic leukemia cells were incubated with 2, 3, 6, 9, 12, 14, 15 and 18 base GT sequences and production of the cyotkine IL-6 was determined (Table 35).
THP-1 human acute monocytic leukemia cells were incubated with 6 base GT, AG, CG, GG, AGT and CGT sequences and production of the cytokines IL-12 and IL-6 was determined (Table 36).
THP-1 human acute monocytic leukemia cells were incubated with 6 base GT sequences, having either an oxygen (phosphodiester) or a sulfur (phosphorothioate) as the nonbridging atom on the phosphate groups and production of the cytokine IL-12 was determined (Table 39).
THP-1 human acute monocytic leukemia cells were incubated with 6 base GT SEQ ID NO:25, having either an oxygen (phosphodiester) or a sulfur (phosphorothioate) as the nonbridging atom on the phosphate groups and production of the cytokine IL-12 was determined (Table 40).

[3] = system: Jurkat human leukemia T cells; test: Cell cycle stage in Jurkat cells (propidium iodide flow cytometry); settings: Jurkat, 24 h, 100 μg/ml
Protocol: Cell cycle stage was determined using a […]™ PLUS DNA commercial kit (Becton Dickinson). Briefly, nuclei from cells were obtained by dissolving the cell membrane in a nonionic detergent, eliminating the cell cytoskeleton and nuclear proteins with trypsin, digesting the cellular RNA with RNase and stabilizing the nuclear chromatin with spermine. Propidium iodide was added to the cell nuclei and their fluorescence was analyzed in a flow cytometer equipped with electronic doublet discrimination capability (FACSCalibur, Becton Dickinson, San Jose, Calif.). Accumulation of cells in G0/G1, early S (SE), mid S (SM), late S (SL) or G2/M phases of the cell cycle was analyzed using MODFIT LT software (Verity Software House Inc., Topsham, Mass.).
Exponentially growing Jurkat human leukemia T cells (Table 28) and MCF-7 human breast cancer cells (5×10^5 cells/ml) (Table 29) were incubated for 24 h with 2, 6, 15, 18, 27 and 45 base sequences containing A, C, G and T. The cells were collected and centrifuged and cell cycle stage was determined.
Jurkat human cell leukemia T cells (1×10^6 cells/ml) were incubated for 24 h with 6 base GT SEQ ID NO:25, conplementary 6 base AC SEQ ID NO:79 and 6 base GT SEQ ID NO:25+6 base AC SEQ ID NO:79. GT SEQ ID NO:25 and AC SEQ ID NO:79 were hybridized by mixing the oligonucleotides (1:1) and heating for 10 minutes at 65° C. As controls, GT SEQ ID NO:25 and AC SEQ ID NO:79 were heated for 10 minutes at 65° C. (Table 30).

Row | Compound | % INHIBITION of Jurkat human leukemia T cell proliferation [1] [%] | ↑ IL-6 (fold increase treated vs control cells) [2] [x] | ↑ IL-12 (fold increase treated vs control cells) [2] [x] | other results
1 | TGTG (unmodified DNA) [SEQ ID NO:59] | 52 |  |  | 
2 | TGGGTGG (unmodified DNA) [SEQ ID NO:64] | 55 |  |  | 
3 | GTGTGTGTG (chemistry not given here) [SEQ ID NO:12] | 47 | 5.4 |  | 
4 | TCTCTCTCTCTCTCTCTCTCTCTCTCT (unmodified DNA) [SEQ ID NO:6] | 0 |  |  | 
5 | GCCGAGAAGGTGCGCAACCTGCCGGCTGGCCACGGACTGAACGCT (unmodified DNA) [BCG A-7, reference compound] | 4 |  | 0.5 | 
6 | N.N.[Cl][Pt][Cl] [Cisplatin, reference compound] |  |  |  | % INHIBITION of Jurkat proliferation, Cisplatin 0.1 μg/ml ([1]; cisplatin 0.1 μg/ml, alone or with sequence at 1.0 μg/ml): 7%; % INHIBITION of Jurkat proliferation, Cisplatin 1.0 μg/ml ([1]; cisplatin 1.0 μg/ml, alone or with sequence at 1.0 μg/ml): 29%; % INHIBITION of Jurkat proliferation, Cisplatin 10.0 μg/ml ([1]; cisplatin 10.0 μg/ml, alone or with sequence at 1.0 μg/ml): 73%
7 | GGGTTT [SEQ ID NO:40] | 31 | 14.0 | −1.2 | 
8 | AAAGAGGGGCATGACCCGGTGCGGGGGTTCTTGCACTCGGCATAG (unmodified DNA) [BCG A-1, reference compound] | 6 | 2.6 | 1.9 | % of cells in phase: G0/G1 [3]: 19.8%; % of cells in phase: G2/M [3]: 12.0%; % of cells in phase: SE [3]: 31.7%; % of cells in phase: SL [3]: 14.0%; % of cells in phase: SM [3]: 22.5%; Arrest (cell cycle) [3]: Mid SM
9 | GTGTGTGTGTGTGTG (unmodified DNA) [SEQ ID NO:16] | 58 | 2.6 |  | 
10 | TGTT (unmodified DNA) [SEQ ID NO:57] | 32 |  |  | 
11 | CCGTGG [SEQ ID NO:34] | 37 | 10.8 | 0.0 | 
12 | GTGGGG [SEQ ID NO:48] | 26 |  |  | 
13 | GTGTGTGTGTGTGTGTGTGTGTGTGTG (DNA, backbone not given here; further chemistry not fully specified) [SEQ ID NO:1 phosphorothioate] |  |  |  | % of cells in phase: G0/G1 [3]: 33.7%; % of cells in phase: G2/M [3]: 24.5%; % of cells in phase: SE [3]: 17.6%; % of cells in phase: SL [3]: 11.0%; % of cells in phase: SM [3]: 13.2%; Arrest (cell cycle) [3]: None
14 | GGGTGGT (unmodified DNA) [SEQ ID NO:65] | 48 |  |  | 
15 | ACGAGACCACCATCGTCGAGGGCGCCGGTGACACCGACGCCATCG (unmodified DNA) [BCG A-6, reference compound] | 21 | 3.9 | 2.1 | 
16 | CGACTACAACGGCTGGGATATCAACACCCCGGCGTTCGAGTGGTA (unmodified DNA) [BCG ALPHA-1, reference compound] | 10 | 2.1 | 1.1 | 
17 | TGTGTGTGTGTGTGTGTGTGT (unmodified DNA) [SEQ ID NO:19] | 60 |  |  | 
18 | TGTGTGTGTGTGTG (chemistry not given here) [SEQ ID NO:15] | 47 | 1.0 |  | proliferation, cell cycle arrest and apoptosis of Jurkat T cells (summary in words) ([1]; M. phlei murA derived sequences): did not inhibit proliferation of, induce cell cycle arrest in or induce apoptosis of Jurkat T cells

Row | Compound | % INHIBITION of Jurkat human leukemia T cell proliferation [1] [%] | ↑ IL-6 (fold increase treated vs control cells) [2] [x] | ↑ IL-12 (fold increase treated vs control cells) [2] [x] | other results
19 | GGGTGGG (unmodified DNA) [SEQ ID NO:63] | 28 |  |  | 
20 | CGGTGC [SEQ ID NO:38] | 16 | 6.9 | 0.2 | 
21 | GGGTCC [SEQ ID NO:35] | 20 | 21.3 | 1.9 | 
22 | GAGTGA [SEQ ID NO:32] | 24 | 5.8 | 1.8 | 
23 | TTGT (unmodified DNA) [SEQ ID NO:53] | 25 |  |  | 
24 | TGTGTGTGTGTGTGTGTGTGTGTG [SEQ ID NO:21] | 54 |  |  | 
25 | GTGTGTGTGTGTGTGTGTGTG (unmodified DNA) [SEQ ID NO:20] | 46 |  |  | 
26 | GTGTGTGTGTGTGTGTGTGTGTGT [SEQ ID NO:22] | 56 |  |  | 
27 | GGTT (unmodified DNA) [SEQ ID NO:58] | 37 |  |  | 
28 | GTGT (unmodified DNA) [SEQ ID NO:54] | 42 |  |  | 
29 | GGGTCT [SEQ ID NO:33] | 15 | 3.1 | 1.2 | 
30 | TTGTGG [SEQ ID NO:39] | 35 | 6.6 | 0.0 | % INHIBITION of Jurkat proliferation at suboptimal concentration ([1]; 5.0 μg/ml of each 6 base sequence, alone or two together): 4%
31 | ACGCCGACGTCGTCTGTGGTGGGGTGTCTACCGCCAACGCGACGG (unmodified DNA) [BCG M-3, reference compound] | 22 | 2.5 | 1.6 | 
32 | GGAGGG (unmodified DNA) [SEQ ID NO:47] | 14 |  |  | 
33 | TGTGTGTGT (unmodified DNA) [SEQ ID NO:11] | 45 | 5.4 |  | 
34 | TGTGTGTGTGTGTGTGTGTGTGTGTG (DNA TGTGTGTGTGTGTGTGTGTGTGTGTGT; unmodified DNA) [SEQ ID NO:5] | 45 |  |  | 
35 | TTGG (unmodified DNA) [SEQ ID NO:55] | 44 |  |  | 
